According to patent publication US20250302719A1, “COLLAGEN PRODUCTION PROMOTER, COSMETIC COMPOSITION OR EXTERNAL PREPARATION FOR SKIN, AND PREPARATION FOR ORAL ADMINISTRATION” (YAMASA CORPORATION, priority 2022, published 2025):

Tests used:
[1] = test system: Normal human fibroblasts (NHDF); test: Type I collagen production by normal human fibroblasts treated with normal human epidermal cell culture supernatant (K-CM, Example 3, ELISA); format: cell-based; details: for amount of collagen in the culture supernatant of normal human fibroblasts (type I collagen): K-CM: supernatant of normal human epidermal cells treated with 1.25, 2.5, 5 mM sample for 24 hours, fibroblasts 24 hours
Procedure: (§1) The effects of promoting collagen production for pyrimidine nucleotides were then evaluated with the culture supernatant from normal human epidermal cells and with fibroblasts. In this evaluation, the effects were compared for the case where the fibroblasts were directly treated with pyrimidine nucleotides and the case where the fibroblasts were treated with the normal human epidermal cell culture supernatant treated with the pyrimidine nucleotides.
Normal human epidermal cells (NHEK; Kurabo) were seeded in a 96-well plate at a density of 2.5×10^4 cells/well and cultured at 37° C. for 24 hours. The medium was replaced with 100 μL of sample-containing medium (HuMedia-KG2; Kurabo) and cultured for 24 hours. After culturing, the culture supernatant was collected. The sample solutions used were 0, 1.25, 2.5, and 5 (mM) (i.e., 0, 0.0459, 0.0918, and 0.184 (w/v %)) of CMP, 2Na, and 0, 1.25, 2.5, and 5 (mM) (i.e., 0, 0.046, 0.092, and 0.184 (w/v %)) of UMP, 2Na.
Normal human fibroblasts (NHDF; Kurabo) were seeded in a 96-well plate at a density of 2.5×10^4 cells/well/100 μL and cultured at 37° C. for 24 hours. The medium was then replaced with 100 μL of the culture supernatant obtained in the culture supernatant acquisition step from the three-dimensional cultured epidermis as described above and cultured for 24 hours.
(§2) The culture supernatant of normal human fibroblasts was collected and an amount of type I collagen was quantified by ELISA. The protein amount of the culture supernatant was also measured by BCA protein assay.

[2] = test system: Normal human fibroblasts (NHDF); test: Type I collagen production by normal human fibroblasts directly treated with sample (Example 3, ELISA); format: cell-based; details: direct treatment of normal human fibroblasts with 1.25, 2.5, 5 mM sample, 24 hours
Procedure: as §1
Normal human fibroblasts (NHDF; Kurabo) were seeded in a 96-well plate at a density of 2.55×10^4 cells/well/100 μL and cultured at 37° C. for 24 hours. The medium was then replaced with 100 μL of media (HuMedia-KG2; Kurabo) containing CMP, 2Na at 0, 1.25, 2.5, 5 (mM) (i.e., 0, 0.0459, 0.0918, 0.184 (w/v %)) and UMP, 2Na at 0, 1.25, 2.5, 5 (MM) (i.e., 0, 0.046, 0.092, 0.184 (w/v %)), and cultured for 24 hours.
as §2

Collagen 1A1 (COL1A1) = test: mRNA expression of COL1A1 in fibroblasts treated with culture supernatant from three-dimensional cultured epidermis (Example 2, real time PCR); format: cell-based, human; details: three-dimensional cultured epidermis treated with CMP, 2Na 1.0, 2.0 w/v %; supernatant on fibroblasts; GAPDH endogenous control
Procedure: Similarly, the mRNA expression levels of Collagen 1A1 (COL1A1), a factor related to type I collagen synthesis, were quantified by real-time PCR.
(§3) Three-dimensional cultured epidermis (LabCyte EPI MODEL 24; manufactured by J TEC) was set in a 24-well plate to which 500 μL of the attached assay medium was added, and conditioned overnight at 37° C. 50 μL of sample-containing PBS (-) was applied from the stratum corneum side and cultured for 24 hours. After removing the sample-containing PBS (-), the plate was washed with PBS (-). The medium was replaced with a fresh medium, 50 μL of sample-containing PBS (-) was newly applied from the stratum corneum side, and further cultured for 48 hours. After culturing, the culture supernatant was collected. The concentrations of CMP, 2Na in the respective samples were 0, 1.0, and 2.0 (w/v %), respectively.
Normal human fibroblasts were treated with the culture supernatant by the same method as that of Example 1. RNA was extracted from NHDF using RNeasy Mini Kit (QIAGEN), and mRNA expression analysis for collagen 1A1 (COL1A1) was performed by real time PCR ([…]). Glyceraldehyde 3-phosphate dehydrogenase (GAPDH) was used as an endogenous control.

[3] = test system: freshly extracted human skin; test: Ex vivo evaluation test using freshly extracted human skin, elastica-van Gieson staining of collagen fibers (Example 4); details: CMP, 2Na 1.0, 2.0 w/v % applied from stratum corneum side, total of 72 hours
Procedure: To evaluate the effect on actual skin with greater precision, an ex vivo evaluation test was conducted using freshly extracted human skin.
Abdominal skin tissue was used, which was taken from a patient during cosmetic surgery, after obtaining informed consent for use in research. The extracted skin was placed in a culture plate supplemented with 1.3 ml of D-MEM/Ham's F-12 medium, and conditioned overnight at 37° C. in 5% CO2. An appropriate amount of PBS (-) containing a given concentration of each sample was applied from the stratum corneum side, and further cultured for 24 hours. The treatment was continued for a total of 72 hours while replacing the sample and medium with fresh ones every 24 hours. The concentrations of CMP, 2Na in the respective samples were 0, 1.0, and 2.0 (w/v %).
After the cultured skin tissue was fixed according to a standard method, skin tissue sections were prepared, collagen fibers were stained with elastica-van Gieson stain, and observed under a microscope.

[4] = test system: Normal human fibroblasts (NHDF); test: Type I collagen production by normal human fibroblasts treated with culture supernatant from three-dimensional cultured epidermis (Example 1, ELISA); format: cell-based; details: three-dimensional cultured epidermis treated with CMP, 2Na 0.125, 0.25, 1.0, 2.0 w/v % from stratum corneum side, supernatant on fibroblasts 24 hours
Procedure: To reproduce the phenomenon that would occur in actual epidermis, the effect of promoting collagen production for pyrimidine nucleotides was evaluated with a culture supernatant from three-dimensional cultured epidermis, and with fibroblasts.
as §3, with “The samples to be treated with UVB were irradiated with 600 mJ/cm^2 using a UVB lamp (TL20W/12RS; manufactured by PHILIPS). For both samples with and without the UVB treatment, the media were” for “The medium was”, “with” for “with a”, “fresh media,” for “fresh medium,”, “0, 0.125, 0.25, 1.0” for “0, 1.0,”, “respectively. […]” for “respectively.”
The culture supernatant from normal human fibroblasts was collected and an amount of type I collagen was quantified by ELISA. The protein amount of the culture supernatant was also measured by BCA protein assay.

[5] = test system: cultured human skin fibroblasts; details: uridylic acid alone, as disclosed in Patent Literature 1; cited from earlier work

Row | SMILES | effect of promoting collagen production, cytidylic acid compared with uridylic acid ([1]; Example 3) | amount of collagen in the culture supernatant of normal human fibroblasts (type I collagen) [1] | amount of collagen (type I collagen) [2] | expression level of COL1A1 (mRNA, relative to 0 w/v %) (Collagen 1A1 (COL1A1)) | collagen fibers in dermis (elastica-van Gieson stain) [3] | amount of collagen in the culture supernatant from normal human fibroblasts (type I collagen) ([4]; UVB 600 mJ/cm^2) | amount of collagen in the culture supernatant from normal human fibroblasts (type I collagen) ([4]; UVB (-)) | effect of promoting collagen production [5]
1 | Nc1ccn([C@@H]2O[C@H](COP(=O)(O)O)[C@@H](O)[C@H]2O)c(=O)n1 [CMP, 2Na, disodium cytidylate] | higher effect of promoting collagen production | increased | no increase | increased | tended to result in denser collagen fibers | increased | increased | –
2 | O=c1ccn([C@@H]2O[C@H](COP(=O)(O)O)[C@@H](O)[C@H]2O)c(=O)[nH]1 [UMP, 2Na, disodium uridylate] | – | increased | no increase | – | – | – | – | no effect of promoting collagen production
